“Also recorded” adds a separate entry of the source.
How the values were obtained:
[1] = test system: OSM-induced pSTAT3 in MDA-MB-231 human breast cancer cells; assay: pSTAT3 ELISA in MDA-MB-231 cells treated with OSM ± SMI; assay type: cell-based; conditions: SMI 10 μM, OSM 10 ng/mL, 30 min
Protocol: 2 High-throughput virtual screening identifies three novel compounds capable of interacting with site III of OSM. […] (F) Structure of parent SMI-10. Data are presented as mean ± SD relative to + OSM treatment, analyzed by one-way ANOVA with Tukey’s posttest *p < 0.05, **p < 0.01. To test the effect of SMIs in vitro, each SMI was incubated with OSM for a period of 1 h at 37 °C, and T47D and MDA-MB-231 human breast cancer cell lines were subsequently treated with OSM (10 ng/mL) and/or SMI-10 (10 μM) analogs for 30 min and measured for pSTAT3 levels via ELISA. The results of these assays are presented graphically in Figure and, for T47D cells, in Table as a percentage of reduction from +OSM alone. For phospho-STAT3 (pSTAT3) ELISAs, T47D MDA-MB-231, and MCF-7 cells were seeded in 12- or 24-well plates at 70–75% confluency and allowed to adhere overnight, after which cells were serum-starved with serum-free RPMI-1640 for 4 h. SMIs (10 μM in DMSO or serially diluted to specified concentrations from a 100 mM stock in DMSO) and human recombinant OSM (10 ng/mL; PeproTech; #300–10T-10UG) were incubated in serum-free RPMI-1640 medium for 1 h. After incubation, the SMI-10 analogs or SMI-10B13 and OSM were added to the serum-starved cells for 30 min. Immediately afterward, the cells were lysed using 1x PathScan Sandwich ELISA Lysis Buffer (Cell Signaling Technology; #7018S), collected, and stored at −20 °C. Lysates were analyzed for pSTAT3 levels using either the PathScan Phospho-STAT3 (Tyr705) Sandwich ELISA Antibody Pair kit (Cell Signaling Technology; #7146) or Human/Mouse Phospho-STAT3 (Y705) DuoSet IC ELISA (R&D Systems; DYC4607B), according to manufacture’s protocol. pSTAT3 expression was measured with absorbance at 450 nm and quantified by comparison relative to OSM-induced pSTAT3 levels. To calculate an IC50 for SMI-10B13, a standard curve was generated as described in the DuoSet IC ELISA datasheet to determine the concentration of pSTAT3.

gp130 = molecular target: T1, gp130 (Homo sapiens, UniProt P40189); assay: Fluorescence quenching check of SMI binding to gp130; conditions: data not shown
T1 construct: purchased R&D Systems 671-GP
T1 sequence (P40189 23-619 limits assumed): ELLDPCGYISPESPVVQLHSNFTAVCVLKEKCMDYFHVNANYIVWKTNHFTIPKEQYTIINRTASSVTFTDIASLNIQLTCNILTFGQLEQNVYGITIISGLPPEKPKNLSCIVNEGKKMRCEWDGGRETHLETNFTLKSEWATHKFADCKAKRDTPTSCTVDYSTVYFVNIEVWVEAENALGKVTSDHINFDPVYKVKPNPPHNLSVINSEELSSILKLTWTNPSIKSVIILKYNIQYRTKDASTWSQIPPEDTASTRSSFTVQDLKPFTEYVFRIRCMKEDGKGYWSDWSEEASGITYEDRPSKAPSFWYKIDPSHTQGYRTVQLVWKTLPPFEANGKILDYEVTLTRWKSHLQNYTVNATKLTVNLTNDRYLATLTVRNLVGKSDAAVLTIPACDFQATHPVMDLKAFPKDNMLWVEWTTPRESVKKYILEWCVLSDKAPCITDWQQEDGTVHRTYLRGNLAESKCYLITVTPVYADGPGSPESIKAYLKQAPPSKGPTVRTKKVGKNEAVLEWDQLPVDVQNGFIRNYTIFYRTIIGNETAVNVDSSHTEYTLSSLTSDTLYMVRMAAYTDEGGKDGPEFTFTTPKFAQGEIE

[2] = molecular target: T2, gp130 binding to immobilized OSM (Homo sapiens, UniProt P13725); assay: SPR surface competition binding assay between gp130 and SMI for immobilized OSM; conditions: gp130 50 nM
T2 construct: purchased R&D Systems 671-GP
T2 sequence (P13725 26-212 limits assumed): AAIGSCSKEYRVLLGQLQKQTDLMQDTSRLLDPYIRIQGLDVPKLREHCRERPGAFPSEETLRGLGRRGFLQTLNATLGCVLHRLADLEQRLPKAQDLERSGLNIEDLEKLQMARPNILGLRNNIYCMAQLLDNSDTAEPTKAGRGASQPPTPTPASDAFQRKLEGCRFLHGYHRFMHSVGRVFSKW
Protocol: SPR experiments were performed on a Reichert SR7000 instrument that was fed by a Surveyor LC autosampler and pump. All experiments were conducted at 25 °C. In all experiments, OSM (∼24 kDa; as previously described) was immobilized to the surface of a PEF-10% carboxyl mixed self-assembled monolayer gold sensor chip (Reichert part #13206061), and the experiments were completed within 3 days. The immobilization phase was conducted using sterile-filtered, fresh 10 mM acetate buffer, pH 5, at a flow rate of 15 μL/min. The chip was first washed with 100 μL of 2 M NaCl in DI water and 100 μL of 10 mM NaOH in DI water. The chip was activated with a 100 μL injection of 10 mg/mL N-hydroxysuccinimide (NHS) and 40 mg/mL 1-ethyl-3-(3-dimethylaminopropyl)­carbodiimide (EDC) mixed in 1 mL of nanopure water immediately before injecting. Then, a 200 μg/mL solution of OSM (100–300 μL) in acetate buffer was diluted and injected multiple times with 100 μL injections to achieve a response of about 600–1000 RU. The remaining reactive NHS groups were then deactivated with a 100 μL injection of 1 M ethanolamine hydrochloride in DI H2O. […] The real-time changes in refractive index units of the association and dissociation phases were monitored. […]

[3] = test system: MCF-7-luc-OSM-overexpressing breast tumor cells; assay: ER+ orthotopic xenograft, survival and metastasis over 50 days; assay type: in vivo, athymic nu/nu mice
Protocol: To evaluate the effectiveness of SMI-10B13 against survivability and metastasis, we performed a related but separate experiment. As before, mice were treated with either vehicle or SMI-10B13 12 h prior to tumor cell injection and monitored for tumor growth while receiving treatment 3x weekly (Figure A). […] After 50 days, all mice were sacrificed, and metastases were evaluated with ex vivo imaging. […] Thus, for the first time, we have shown that an anti-OSM small molecule inhibitor may inhibit breast cancer progression and metastasis.
Seven- to eight-week-old athymic nu/nu mice were purchased from Jackson Laboratory and quarantined for 6 days. Twelve hours before tumor cell injection, the mice were grouped and injected intraperitoneally (i.p.) with 50 mg/kg of SMI-10B13 or vehicle (10% DMSO, 10% EtOH, 20% Cremophor EL, 60% propylene glycol; diluted in half with PBS). The following morning, MCF-7-Luc-flOSM cells (described above) were grown to 70–75% confluency, and the cells were concentrated to 4.0 × 10^7 cells/mL in PBS containing serum-free RPMI-1640. A 50 μL cell suspension was injected into the fourth mammary fat pad, resulting in 2.0 × 10^6 cells/injection. Mice were then injected (via i.p.) 3x weekly with SMI-10B13 or the vehicle control. Mice were also injected 1x weekly with D-luciferin (PerkinElmer; 122799–5) for bioluminescence detection for a period of 40–50 days, and 3x weekly for tumor growth via caliper measurement. Animals were sacrificed, and their serum and tumors were collected for analysis. Organs were harvested, and ex vivo imaging was performed to evaluate metastasis. All in vivo and ex vivo imaging was performed as previously described. All animal experiments were performed following the protocols evaluated and approved by the Boise State University Institutional Animal Care and Use Committee (IACUC) (Ethics Approval Number: AC23-043).

| SMILES | Inhibition of OSM-induced pSTAT3 via ELISA [1] | Binding to gp130 (gp130) | Inhibition of gp130 binding to immobilized OSM ([2]; SMI 100 μM) | IC50 ([2]; SPR surface competition, estimated, read-out: estimated IC50 for inhibition of gp130 binding to immobilized OSM) [µM] | Survival (Kaplan-Meier) vs vehicle ([3]; 50 mg/kg i.p. 3x weekly, 50 days, p = 0.04) | Lung metastases fluorescent intensity (ex vivo imaging) ([3]; 50 mg/kg i.p. 3x weekly, after 50 days) | Tumor size vs vehicle ([3]; 50 days experiment, end point) | Lung metastasis intensity vs vehicle ([3]; ex vivo imaging, 50 days) |
| --- | --- | --- | --- | --- | --- | --- | --- | --- |
| O=C(O)/C=C/c1cc(-c2ccc3c(c2)OCO3)c(-c2ccc3c(c2)OCO3)o1 [SMI-10B, (E)-3-(4,5-Bis(benzo[d][1,3]dioxol-5-yl)furan-2-yl)acrylic acid] | capable of inhibiting OSM-induced pSTAT3 |  |  |  |  |  |  |  |
| O=C(O)/C=C/c1cc(-c2ccc3cc[nH]c3c2)c(-c2ccc3cc[nH]c3c2)o1 [SMI-10B13, (E)-3-(4,5-di(1H-Indol-6-yl)furan-2-yl)acrylic Acid] |  | does not bind to gp130 | almost completely inhibited | 30 to 100 | improved survival; also recorded: prolonged survival; also recorded: increase survival | 41.9 × 10^5 intensity | overall smaller tumors | reduction in intensity was not statistically significant; also recorded: trend toward significance in decreasing lung metastasis intensity |
